How the values were obtained:
[1] = system: G-quadruplex of oligonucleotide GGGTTAGGGTTAGGGTTAGGG (3.5 repeats of the human telomereic motif); assay: G-quadruplex stabilizing activity, fluorescence Tm (FAM+DABCYL oligonucleotide); format: binding
Procedure, shortened: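 FAM/DABCYL-labelled telomeric oligonucleotide (0.2 μM strand) in 10 mM sodium cacodylate pH 7.6 with 0.1 M LiCl (or NaCl) was annealed, then incubated ≥1 h at 20 °C with compound at 1 μM final. Samples were heated 20→80 °C, with excitation at 470 nm and emission at 515/588 nm. Tm is the 515 nm emission midpoint.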

| Compound | G4 delta Tm [1] | melting point |
| --- | --- | --- |
| CC1=NCCN1c1nc(Nc2ccc3nc(C)cc(N(C)C)c3c2)nc(Nc2ccc3nc(C)cc(N(C)C)c3c2)n1 [Example 148] | 12 °C | – |
| Cc1cc(N)c2cc(Nc3nc(NCc4ccc([N+](C)(C)C)cc4)nc(Nc4ccc5nc(C)cc(N)c5c4)n3)ccc2n1 [Example 60] | 6 °C | – |
| Cc1cc(N(C)C)c2cc(Nc3nc(Nc4ccc5nc(C)cc(N(C)C)c5c4)nc(N4CCCN(C)CC4)n3)ccc2n1 [Example 135, 2,4-bis(4-dimethylamino-2-methylquinolin-6-yl)amino-6-(1-methylhomopiperazin-4-yl)-[1,3,5]triazine] | 20 °C | – |
| Cc1cc(N)c2cc(Nc3nc(Nc4ccc5nc(C)cc(N)c5c4)nc(OCCN(C)Cc4ccccc4)n3)ccc2n1 [Example 105] | 12 °C | – |
| COc1ccc(CSc2nc(Nc3ccc4nc(C)cc(N)c4c3)nc(Nc3ccc4nc(C)cc(N)c4c3)n2)cc1 [Example 124] | 3 °C | – |
| Cc1cc(N)c2cc(Nc3nc(Nc4ccc5nc(C)cc(N)c5c4)nc(N4CCN(C(=O)c5ccco5)CC4)n3)ccc2n1 [Example 68] | 8 °C | – |
| Cc1cc(N)c2cc(Nc3nc(Nc4ccc5nc(C)cc(N)c5c4)nc(N4CCCC4c4cccnc4)n3)ccc2n1 (centres unmarked) [Example 86] | 6 °C | – |
| Cc1cc(N)c2cc(Nc3nc(Nc4ccc5nc(C)cc(N)c5c4)nc(Sc4ccc5ccccc5n4)n3)ccc2n1 [Example 128, 2,4-bis(4-amino-2-methylquinolin-6-yl)amino-6-(quinolin-2-yl)thio-[1,3,5]triazine] | 15 °C | – |
| Cc1cc(N)c2cc(Nc3nc(Nc4ccc(N5CCNCC5)cc4)nc(Nc4ccc5nc(C)cc(N)c5c4)n3)ccc2n1 [Example 15] | 2.7 °C | – |
| Cc1cc(N(C)C)c2cc(Nc3nc(NCCCN(C)C)nc(Nc4ccc5nc(C)cc(N(C)C)c5c4)n3)ccc2n1 [Example 1, 2,4-bis(4-dimethylamino-2-methylquinolin-6-yl)amino-6-(3-dimethylaminopropyl)amino-[1,3,5]triazine] | 11.3 °C | – |
| Cc1cc(N(C)C)c2cc(Nc3nc(Nc4ccc5nc(C)cc(N(C)C)c5c4)nc(N4CCN(CCCN(C)C)CC4)n3)ccc2n1 [Example 136, 2,4-bis(4-dimethylamino-2-methylquinolin-6-yl)amino-6-[1-(3-dimethylaminopropyl)piperazin-4-yl]-[1,3,5]triazine] | 20.5 °C | – |
| CC(=O)NCCNc1nc(Nc2ccc3nc(C)cc(N(C)C)c3c2)nc(Nc2ccc3nc(C)cc(N(C)C)c3c2)n1 [Example 150] | 6.5 °C | – |
| Cc1cc(N)c2cc(Nc3nc(Nc4ccc5nc(C)cc(N)c5c4)nc(NC4CN5CCC4CC5)n3)ccc2n1 (centres unmarked) [Example 17, 2,4-bis(4-amino-2-methylquinolin-6-yl)amino-6-(quinuclidin-3-yl)amino-[1,3,5]triazine] | 17.1 °C | – |
| Cc1cc(N(C)C)c2cc(Nc3nc(Nc4ccc5nc(C)cc(N(C)C)c5c4)nc(N4CCCN(CCCN5CCCC5)CC4)n3)ccc2n1 [Example 139] | 18.5 °C | – |
| Cc1cc(N(C)C)c2cc(Nc3nc(Nc4ccc5nc(C)cc(N(C)C)c5c4)nc(N4CCC[C@H]4CN4CCCC4)n3)ccc2n1 [Example 149, 2,4-bis(4-dimethylamino-2-methylquinolin-6-yl)amino-6-[2(S)-(pyrrolidin-1-yl)methylpyrrolidin-1-yl]-[1,3,5]triazine] | 12.5 °C | – |
| CCN(CCN(C)C)c1nc(Nc2ccc3nc(C)cc(N(C)C)c3c2)nc(Nc2ccc3nc(C)cc(N(C)C)c3c2)n1 [Example 146] | 6 °C | – |
| Cc1cc(N)c2cc(Nc3nc(Nc4ccc5nc(C)cc(N(C)C)c5c4)nc(Nc4ccccc4Cl)n3)ccc2n1 [Example 3] | 5.5 °C | – |
| Cc1cc(N)c2cc(Nc3nc(Nc4ccc5nc(C)cc(N)c5c4)nc(NC4CCN(Cc5ccccc5)CC4)n3)ccc2n1 [Example 93] | 8 °C | – |
| Cc1cc(N(C)C)c2cc(Nc3nc(NCc4ccncc4)nc(Nc4ccc5nc(C)cc(N(C)C)c5c4)n3)ccc2n1 [Example 145] | 5 °C | – |
| Cc1cc(N)c2cc(Nc3nc(Nc4ccc5nc(C)cc(N)c5c4)nc(N(Cc4ccccc4)C4CN5CCC4CC5)n3)ccc2n1 (centres unmarked) [Example 92] | 3.5 °C | – |
| Cc1cc(N(C)C)c2cc(Nc3nc(Nc4ccc5nc(C)cc(N(C)C)c5c4)nc(N4CCN(c5ccncc5)CC4)n3)ccc2n1 [Example 144, 2,4-bis(4-dimethylamino-2-methylquinolin-6-yl)amino-6-[1-(pyridin-4-yl)piperazin-4-yl]-[1,3,5]triazine] | 22.5 °C | – |
| Cc1cc(C)nc(Sc2nc(Nc3ccc4nc(C)cc(N)c4c3)nc(Nc3ccc4nc(C)cc(N)c4c3)n2)n1 [Example 127] | 14 °C | – |

| Compound | G4 delta Tm [1] | melting point |
| --- | --- | --- |
| Cc1cc(N)c2cc(Nc3nc(Nc4ccc5nc(C)cc(N)c5c4)nc(Sc4ccccc4Cl)n3)ccc2n1 [Example 118] | 3.5 °C | – |
| Cc1cc(N(C)C)c2cc(Nc3nc(Nc4ccc5nc(C)cc(N(C)C)c5c4)nc(N4CCN(CCOCCO)CC4)n3)ccc2n1 [Example 141, 2,4-bis(4-dimethylamino-2-methylquinolin-6-yl)amino-6-{[1-2-(2-hydroxyethyl)oxyethyl]piperazin-4-yl}-[1,3,5]triazine] | 7 °C | – |
| Cc1cc(N)c2cc(Nc3nc(Nc4ccc5nc(C)cc(N)c5c4)nc(Sc4ncccn4)n3)ccc2n1 [Example 126] | 19 °C | – |
| Cc1cc(N(C)C)c2cc(Nc3nc(Nc4ccc5nc(C)cc(N(C)C)c5c4)nc(Oc4ccncc4)n3)ccc2n1 [Example 115, 2,4-bis(4-dimethylamino-2-methylquinolin-6-yl)amino-6-(pyridin-4-yl)oxy-[1,3,5]triazine] | 13 °C | – |
| CCCN(CCC)CCN1CCN(c2nc(Nc3ccc4nc(C)cc(N(C)C)c4c3)nc(Nc3ccc4nc(C)cc(N(C)C)c4c3)n2)CC1 [Example 137, 2,4-bis(4-dimethylamino-2-methylquinolin-6-yl)amino-6-[1-(2-dipropylaminoethyl)piperazin-4-yl]-[1,3,5]triazine] | 16 °C | – |
| Cc1cc(N(C)C)c2cc(Nc3nc(NCC[N+](C)(C)C)nc(Nc4ccc5nc(C)cc(N(C)C)c5c4)n3)ccc2n1 [Example 142] | 9.5 °C | – |
| Cc1cc(N(C)C)c2cc(Nc3nc(Nc4ccc5nc(C)cc(N(C)C)c5c4)nc(C4CCN(C)CC4)n3)ccc2n1 [Example 19, 2,4-bis(4-dimethylamino-2-methylquinolin-6-yl)amino-6-(1-methylpiperidin-4-yl)-[1,3,5]triazine] | 3.5 °C | – |
| Cc1cc(N)c2cc(Nc3nc(Nc4ccc5nc(C)cc(N)c5c4)nc(N4CCN(C5CCCCCCC5)CC4)n3)ccc2n1 [Example 77] | 12.5 °C | – |
| Cc1cc(N)c2cc(Nc3nc(Nc4ccc5nc(C)cc(N)c5c4)nc(Nc4ccc5nc(C)cc(N)c5c4)n3)ccc2n1 [Example 2, 2,4,6-tris(4-amino-2-methylquinolin-6-yl)amino-[1,3,5]triazine] | 18 °C | – |
| CCN(CCNc1nc(Nc2ccc3nc(C)cc(N(C)C)c3c2)nc(Nc2ccc3nc(C)cc(N(C)C)c3c2)n1)c1cccc(C)c1 [Example 28] | 10.6 °C | – |
| Cc1cc(N(C)C)c2cc(Nc3nc(Nc4ccc5nc(C)cc(N(C)C)c5c4)nc(N(C)C4CCN(C)CC4)n3)ccc2n1 [Example 138, 2,4-bis(4-dimethylamino-2-methylquinolin-6-yl)amino-6-[N-(1-methylpiperidin-4-yl)-N-methylamino]-[1,3,5]triazine] | 16 °C | – |
| COc1cccc(Oc2nc(Nc3ccc4nc(C)cc(N)c4c3)nc(Nc3ccc4nc(C)cc(N)c4c3)n2)c1 [Example 104] | 4.5 °C | – |
| Cc1cc(N(C)C)c2cc(Nc3nc(Nc4ccc5nc(C)cc(N(C)C)c5c4)nc(N4CCN(C)CC4)n3)ccc2n1 [Example 20, 2,4-bis(4-dimethylamino-2-methylquinolin-6-yl)amino-6-(4-methylpiperazin-1-yl)-[1,3,5]triazine] | 6.4 °C | 256 to 260 °C |
| Cc1cc(N)c2cc(Nc3nc(Nc4ccc5nc(C)cc(N)c5c4)nc(Sc4ccccn4)n3)ccc2n1 [Example 120] | 11.5 °C | – |
| Cc1cc(N)c2cc(Nc3nc(Nc4ccc5nc(C)cc(N)c5c4)nc(N4CCN(C5CCCC5)CC4)n3)ccc2n1 [Example 43] | 18 °C | – |
| Cc1cc(N(C)C)c2cc(Nc3nc(NCc4ccncc4)nc(Nc4ccc5nc(C)cc(N(C)C)c5c4)n3)ccc2n1 [Example 27, 2,4-bis(4-dimethylamino-2-methylquinolin-6-yl)amino-6-(pyridin-4-yl)methylamino-[1,3,5]triazine] | 11.0 °C | – |
| Cc1cc(N)c2cc(Nc3nc(Nc4ccc5nc(C)cc(N)c5c4)nc(NC4CCN(Cc5ccccc5)C4)n3)ccc2n1 (centres unmarked) [Example 41] | 19 °C | – |
| Cc1cc(N)c2cc(Nc3nc(Nc4ccc5nc(C)cc(N)c5c4)nc(Oc4ccccc4Cl)n3)ccc2n1 [Example 103] | 7 °C | – |
| Cc1cc(N(C)C)c2cc(Nc3nc(Nc4ccncc4)nc(Nc4ccc5nc(C)cc(N(C)C)c5c4)n3)ccc2n1 [Example 18] | 2.4 °C | – |
| Cc1cc(N(C)C)c2cc(Nc3nc(Nc4ccc5nc(C)cc(N(C)C)c5c4)nc(N4CCN(C5CCCC5)CC4)n3)ccc2n1 [Example 143] | 13 °C | – |
| Cc1cc(N(C)C)c2cc(Nc3nc(NCCN4CCN(Cc5ccccc5)CC4)nc(Nc4ccc5nc(C)cc(N(C)C)c5c4)n3)ccc2n1 [Example 140] | 5.5 °C | – |

— patent US6887873B2, “Triazine derivatives and their application as antitelomerase agents” (Aventis Pharma S.A., priority 2001, dated 2005)
